Patent publication US11234982B2, “Methods for treating ocular surface pain” (NOVARTIS AG, priority 2019, dated 2022)

Test system: cornea
Test: Esthesiometry assessment (Part 3): corneal sensitivity, anesthetic effect
Assay type: in vivo, human
Details: for Anesthetic effect on the cornea (esthesiometry): single eye drop: tetracaine 0.5%, diclofenac 0.1%, compound I 2.5%
Text: Part 3 was an esthesiometry assessment to evaluate the anesthetic properties of compound I. Part 3 of the study had four arms, with compound I, vehicle, tetracaine (0.5% ophthalmic solution, used as a positive control) and diclofenac sodium (0.1% ophthalmic solution, used as the active NSAID comparator). Ocular anesthetic was selected because of its established anesthetic effect; however it is not the standard of care due to its negative effect on wound healing. NSAID is the current standard of care for corneal pain after PRK with minimal anesthetic but significant pain control properties. Vehicle eye drops were used as a negative control to enable better determination of the potential anesthetic effect. Twelve healthy subjects, who met the eligibility criteria, were randomized to receive a single eye drop of 4 study treatments, each during 1 of 4 different study days (Days 1, 4, 7 and 10). Each subject was randomized to receive the study treatment according to one of the following four sequences: • Sequence 1: Anesthetic, NSAID, compound I 2.5%, Vehicle • Sequence 2: NSAID, Vehicle, Anesthetic, compound I 2.5% • Sequence 3: Vehicle, compound I 2.5%, NSAID, Anesthetic • Sequence 4: compound I 2.5%, Anesthetic, Vehicle, NSAID
Inclusion Criteria: • Written informed consent was obtained before any assessment was performed. • Healthy male and female subjects aged 18 to 50 years (inclusive), and in good health as determined by past medical history, physical examination, vital signs, ECG, and laboratory tests at Screening. • At Screening, and Baseline, vital signs (systolic and diastolic blood pressure (BP) and pulse rate) were assessed in the sitting position after the subject had rested for at least 3 minutes and again after 3 minutes in the standing position. […] BMI=Body weight (kg)/[Height (m)]^2 • Subjects who were able to communicate well with the Investigator, to understand and comply with the requirements of the study. • For Part 3, subjects Baseline levels of eye sensitivity were to be in the range of 50 to 60 mm (inclusive) as measured by the Cochet-Bonnet esthesiometer.
The first-in-human study further evaluated potential anesthetic effect of topical ocular 2.5% compound I by esthesiometry testing, i.e. measurement of the filament length (cm) when the threshold of cornea touch is perceived.

Row | SMILES | Anesthetic effect on the cornea (esthesiometry) | Corneal sensitivity, least squares means, Test vs Ref: vs Diclofenac 0.1% (Tetracaine 0.5% (N=12) vs Diclofenac 0.1% (N=12) at 2.5, 10 and 20 minutes post-dose) | Corneal sensitivity, least squares means, Test vs Ref: vs Vehicle (Tetracaine 0.5% (N=12) vs Vehicle (N=12) at 2.5, 10 and 20 minutes post-dose)
1 | O=C(O)Cc1ccccc1Nc1c(Cl)cccc1Cl [diclofenac, diclofenac sodium, reference compound] | no anesthetic effect |  | 
2 | CCCCNc1ccc(C(=O)OCCN(C)C)cc1 [tetracaine, reference compound] | had an anesthetic effect | statistical and clinical significance were observed | statistical and clinical significance were observed
